Measured values as given in patent publication US9688723B2, “C4S proteoglycan specific transporter molecules” (PHI PHARMA SA, priority 2012, dated 2017).
“Also recorded” adds a separate entry of the source. Where no end group is shown, it is not given here. [ ]: non-standard residue; d: D form.

What was measured:
[1] = test system: Raw macrophage-derived cells; test: Cell proliferation assay (phenol red, LDH content); assay type: cell-based; details: for Effect on growth of raw macrophage-derived cells: 2.5 μM, 48 hrs, phenol red / LDH content
Description: Use of the exemplary peptide of the invention as a carrier moiety was also examined in a cell proliferation assay. Raw macrophage-derived cells were incubated for 48 hrs with 2.5 μM of the indicated nucleoside analog or the analog as a conjugate with the RYF peptide in the presence of phenol red. Cultures containing dividing cells turn medium clear, while the medium of cultures containing in non-dividing cells remains dark (active compounds). Percentage growth was also determined by measuring the relative content of LDH (FIG. 11B). […] For example, the “ribo” and “tg” (Thioguanine) compounds have no effect at the concentration tested (2.5 μm), but become potently cytotoxic when conjugated to an exemplary peptide transporter of the invention (i.e., RYF).
The Experiment was repeated to investigate the effects of the L- or D-linkage on cytotoxic properties of the BAM moiety. The cells were incubated with 3′ amino β-D-arabinofuranoside either alone or in the form of a conjugate with the RYF peptide. […] However, once the 3′ position is conjugated to a D-entantiomer, it cannot be removed by a protease, and once incorporated into the DNA-strand, it will function to prevent further DNA elongation.
The experiment was repeated with 3′AdT (3′ amino deoxythymidine) and 3′ amino β-D-arabinofuranoside (Ribo). Cells were incubated with each of the compounds alone or as an N-terminally linked conjugate to the RYF peptide via either L-Glu (E) or D-Glu (e). The cells were then incubated for 72 hrs before LDH content was measured.

[2] = test system: leukemia/lymphoma cell lines; test: Cancer cell line screening panel, summary over leukemia/lymphoma lines; assay type: cell-based, human; details: 6 leukemia/lymphoma cell lines
Description: (§1) The use of peptides of the invention as carrier molecules was investigated in a screening panel of human cancer cell lines. The human tumor cell lines of the cancer screening panel were grown in RPMI 1640 medium containing 5% fetal bovine serum and 2 mM L-glutamine. For a typical screening experiment, cells were inoculated into 96 well microtiter plates in volumes of 100 μL at plating densities ranging from 5,000 to 40,000 cells/well depending on the doubling time of individual cell lines. […] After 24 h, two plates of each cell line were fixed in situ with TCA to provide a measurement of the cell population at the time of drug addition (Tz). The experimental therapeutics were solubilized in dimethyl sulfoxide at 400-fold the desired final maximum test concentration and stored frozen prior to use. […] Bound stain was subsequently solubilized with 10 mM trizma base, and the absorbance was read on an automated plate reader at a wavelength of 515 nm. […] Using the seven absorbance measurements [time zero, (Tz), control growth, (C), and test growth in the presence of compound at the five concentration levels (Ti)], the percentage growth was calculated at each of the compound concentrations levels. Percentage growth inhibition was calculated as: [(Ti−Tz)/(C−Tz)]×100 for concentrations for which Ti≧Tz [(Ti−Tz)/Tz]×100 for concentrations for which Ti<Tz.

[3] = test system: cell lines from other lineages; test: Cancer cell line screening panel, summary over other lineages; assay type: cell-based, human; details: 54 cell lines from other lineages
Description: as §1

[4] = test system: CHO cells; test: FITC-peptide binding to C4S expressing cells, fluorescence microscopy; assay type: cell-based; set-up: dose or concentration left out as unconfirmed; details: FITC conjugated peptide, 24 hrs
Source text: (§2) As explained throughout the description, the present molecules are able to selectively bind C4S over other proteoglycans.

[5] = test system: chondroitin-4-sulfate (C4S); test: Modified ELISA, peptide binding to coated proteoglycans
Description: The binding of the nine-mer peptides of the invention to C4S predicted by the models, in particular, as compared to the binding to other proteoglycans was tested using a modified ELISA protocol. ELISA plates were coated overnight with 1 mg/ml of heparin sulphate (HS), chondroitin-4-sulfate (C4S), chondroitin-6-sulfate (C6S) or hyaluronic acid (HA) in PBS. The wells were then washed with PBS and incubated for 1 hour at room temperature with 1 mg/ml of an exemplary peptide of the invention having the sequence RYFvRIKYRh (“RYF”; SEQ ID NO:2) or a standard TAT peptide. The plates were then thoroughly washed with PBS and subsequently photographed with a LUMASCOPE™ luminescent microscope. Images were then quantified using the ImageJ software (FIG. 4).
The same modified ELISA protocol was used to examine the impact of altering the chirality of the amino acid residues at positions 1, 5, 9 and 3 or 7 on the binding of the peptides to C4S. […] In FIG. 5, an upper case letter indicates an L-enantiomer and a lower case letter indicates a D-enantiomer.

[6] = test system: Macrophages; test: FITC-RYF binding to chlorate pre-treated macrophages; assay type: cell-based; details: 0, 3, 10 or 30 μM chlorate for 16 hours
Description: The same fluorescent microscopy procedure was used to assess the binding of the FITC-RYF peptide on C4S expressing cells pre-treated with chlorate. Chlorate is an inhibitor of sulfotransferases, and, thus, chlorate treatment decreases or inhibits C4S expression. Macrophages were treated with 0, 3, 10 or 30 μM chlorate for 16 hours prior to washing, incubation with RYF (SEQ ID NO:2) peptide and photography as described above.

[7] = test system: Sog9 cells; test: FITC-peptide binding to cells lacking C4S, fluorescence microscopy; assay type: cell-based; set-up: dose or concentration left out as unconfirmed; details: FITC conjugated peptide, 24 hrs
Source text: as §2

Compound | Effect on growth of raw macrophage-derived cells [1] | Activity on cell growth (LDH content) ([1]; 72 hrs, alone or N-terminally linked to RYF via L-Glu (E) or D-Glu (e)) | mean growth [2] | mean growth [3] | Binding to CHO cells expressing C4S [4] | Binding to C4S ([5]; ELISA plates coated with 1 mg/ml C4S, 1 mg/ml peptide, 1 hour, room temperature) | Selective binding to C4S over other proteoglycans ([5]; versus heparin sulphate (HS), chondroitin-6-sulfate (C6S), hyaluronic acid (HA)) | Binding to macrophages pre-treated with chlorate [6] | Binding to Sog9 cells lacking C4S [7]
3′ amino β-D-arabinofuranoside [Ribo] | no effect | inactive |  |  |  |  |  |  | 
Nc1nc2nc[nH]c2c(=S)[nH]1 [tg, Thioguanine] | no effect |  | 44.13 % of untreated | 86.65 % of untreated |  |  |  |  | 
RYFvRIKYRh (RYF[dV]RIKYR[dH]) |  |  |  |  | intense, uniform binding | specifically binds to the C4S proteoglycan | selectively binds C4S over the other proteoglycans tested; also recorded: specifically and selectively binds C4S over other proteoglycans | binding correlated with chondroytine sulfate expression; also recorded: binding decreased with decreasing C4S expression | did not bind; also recorded: failed to bind
